From patent publication US5691307A, “O^6 -substituted guanine compositions and methods for depleting O^6” (The United States of America as represented by the …, priority 1994, dated 1997)
Read-outs that look alike come from different tables or passages of the source.

Columns and labels:
AGT [1] = experiment: AGT depletion (general statements)
[2] = background; agents under development; cited from earlier work
prostate tumors = conditions: rats bearing prostate tumors; O^6-benzylguanine one hour prior to BCNU, or BCNU alone at equal dose; cited from earlier work
[3] = target: T1, alkyltransferase (AGT), HT29 cells (Homo sapiens, UniProt P16455); experiment: AGT depletion/inactivation in intact HT29 cells; assay type: cell-based
T1 construct: human colon tumor cells HT29 and intact HT29 cells; endogenous in cells; host or cells: HT29 human colon tumor cells, intact
T1 sequence (P16455 1-207): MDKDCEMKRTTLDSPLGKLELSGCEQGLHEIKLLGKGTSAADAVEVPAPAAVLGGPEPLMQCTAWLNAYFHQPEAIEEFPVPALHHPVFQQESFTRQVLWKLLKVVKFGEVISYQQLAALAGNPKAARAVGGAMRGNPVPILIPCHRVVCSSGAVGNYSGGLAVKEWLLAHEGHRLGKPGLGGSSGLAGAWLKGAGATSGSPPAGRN
Procedure: After four hours, cells were harvested and frozen at -80° C. until analysis for AGT.

[4] = target: T2, alkyltransferase (AGT), HT29 cell-free extract (Homo sapiens, UniProt P16455); experiment: biochemical
T2 sequence (P16455 1-207): T1 sequence (P16455 1-207)

[5] = Conversion to O^6-benzylguanine / stability in vitro and in cell cultures; assay type: in vitro ADME
[6] = Stability in alkaline solution (UV at pH 13); assay type: physicochemical; conditions: pH 13, UV measurement
Procedure: The reaction mixture was stirred at 0° C. for 30 min at which time the ice bath was removed and the reaction was allowed to proceed overnight at room temperature. At this point, a water-ice mixture (~5 ml) was added to the flask with vigorous stirring for 5 minutes.

AGT [7] = conditions: cited from earlier work; for AGT depletion (shown previously): literature
tumor cells = conditions: cited from earlier work
pancreatic tumors = conditions: background; cited from earlier work
pancreatic beta cells = conditions: cited from earlier work
[8] = test system: malignant melanomas, brain tumors and mycosis fungoides; conditions: background; cited from earlier work
[9] = test system: active melanin producing cells such as melanoma cells; conditions: cited from earlier work
[10] = HT29 cells, 4 h incubation, 50% inactivation (Table 2), read-out: ED50 In cells
[11] = HT29 cell-free extract, 30 min incubation, 50% inactivation (Table 2), read-out: ED50 In cell-free extract

For `Nc1nc(OCc2ccccc2)c2ncn(CC(=O)[O-])c2n1.[Na+]`, the AGT depletion characteristics (AGT [1]) was “exhibit AGT depletion characteristics”.
In the case of `O=NN(CCCl)C(=O)NCCO` [1-(2-chloroethyl)-3-(2-hydroxyethyl)-1-nitrosourea], the side effects [2] is given as “fewer side effects”.
In the case of `O=NN(CCCl)C(=O)NCCCl` [BCNU, 1,3-bis(2-chloroethyl)-1-nitrosourea], the “regression in tumor growth” value (prostate tumors) is given as “not observed”.
For `CS(=O)(=O)CS(=O)(=O)OCCCl` [Clomesone, 2-chloroethylmethylsulfonylmethanesulfonate], the side effects [2] is given as “fewer side effects”.
In the case of `CCOC(=O)Cn1cnc2c(OCc3ccccc3)nc(N)nc21` [Example 3b, 2-Amino-6-benzyloxy-9-carboethoxymethylpurine], the AGT depletion characteristics (AGT [1]) is reported as “exhibit AGT depletion characteristics”, the IC50 [3, 10] is reported as 3 µM and the IC50 [4, 11] is reported as 30 µM.
With `NC(=O)Cn1cnc2c(OCc3ccccc3)nc(N)nc21` [Example 4b, 2-Amino-6-benzyloxy-9-carbamoylmethylpurine] the AGT depletion characteristics (AGT [1]) was “exhibit AGT depletion characteristics”.
With `CCC(O)Cn1cnc2c(OCc3ccccc3)nc(N)nc21` (stereo not shown) [Example 5b, 2-Amino-6-benzyloxy-9-(2-hydroxybutyl)purine] the AGT depletion characteristics (AGT [1]) was “exhibit AGT depletion characteristics”.
With `N#CCn1cnc2c(OCc3ccccc3)nc(N)nc21` [Example 6b, 2-Amino-6-benzyloxy-9-cyanomethylpurine] the AGT depletion characteristics (AGT [1]) was “exhibit AGT depletion characteristics”.
In the case of `CC(C)(C)C(=O)OCn1cnc2c(OCc3ccccc3)nc(N)nc21` [Example 7, 2-Amino-6-benzyloxy-9-pivaloyloxymethylpurine], the “conversion by esterases in cell cultures” value ([5]; cell cultures) is reported as “Converted to O^6benzylguanine by esterases in cell cultures” and the stability in vitro ([5]; in vitro) is reported as “stable in vitro”.
For `CC(=O)OC[C@H]1OC(OC(C)=O)[C@H](NC(=O)Cn2cnc3c(OCc4ccccc4)nc(N)nc32)[C@@H](OC(C)=O)[C@@H]1OC(C)=O` (stereo partly drawn) [Example 8, 2-Amino-6-benzyloxy-9-{N-[2-deoxy-2-(1,3,4,6-tetra-O-acetyl)-D-glucopyranosyl]carbamoylmethyl}purine], the AGT depletion characteristics (AGT [1]) was “exhibit AGT depletion characteristics”.
In the case of `CC(=O)n1cnc2c(OCc3ccccc3)nc(N)nc21` [Example 13, 9-Acetyl-O^6-benzylguanine], the “decomposition at pH 13” value [6] is reported as “decomposes to O^6 -benzylguanine” and the conversion by hydrolysis ([5]; in vitro and in cultures) is reported as “Converted to O^6benzylguanine by hydrolysis”.
Compound `C[C@]12CC[C@H]3[C@@H](CCC4=CC(=O)CC[C@@]43C)[C@@H]1CC[C@@H]2OC(=O)Cn1cnc2c(OCc3ccccc3)nc(N)nc21` [Example 20, O^6 -Benzyl-9-(4-androsten-3-one-17β-oxycarbonylmethyl) guanine] has an IC50 [3] of 0.5 µM and an IC50 [4] of 5 µM.
With `C[C@]12CCC(=O)C[C@@H]1CC[C@@H]1[C@@H]2CC[C@]2(C)[C@@H](OC(=O)Cn3cnc4c(OCc5ccccc5)nc(N)nc43)CC[C@@H]12` [Example 22, O^6 -Benzyl-9-(5α-androstan-3-one-17β-oxycarbonylmethyl) guanine] the IC50 [3] was 0.5 µM and the IC50 [4] was 4 µM.
In the case of `CCOP(=O)(OCC)C(C)NC(=O)N(CCCl)N=O` (stereo not shown) [Fotemustine, 1-[N-(2-chloroethyl)-N-nitrosoureido]ethylphosphonic acid diethyl ester], the side effects [2] is given as “fewer side effects”.
For `Nc1nc(OCc2ccc(Cl)cc2)c2nc[nH]c2n1` [O^6 -(p-chlorobenzyl)guanine, O^6 -(p-chlorobenzyl) guanine], the “potency as AGT depleter” value (AGT [7]) is listed as “more potent”, the “AGT depletion (shown previously)” value (AGT [7]) is listed as “effective in depleting AGT” and the “enhancement in the cytotoxic response to alkylating agents” value (from here on “enhancement in the cytotoxic response”) (tumor cells) is listed as “enhancement in the cytotoxic response to chemotherapeutic alkylating agents”. For the same compound, the IC50 [3, 10] was 0.08 µM and the IC50 [4, 11] was 0.2 µM.
In the case of `Nc1nc(OCc2ccc(Cl)cc2)c2ncn([C@@H]3O[C@H](CO)[C@@H](O)[C@H]3O)c2n1` [O^6 -(p-chlorobenzyl)guanosine], the “AGT depletion (shown previously)” value (AGT [7]) is given as “effective in depleting AGT”, the IC50 [3, 10] is given as 5 µM and the IC50 [4, 11] is given as 10 µM.
In the case of `Nc1nc(OCc2ccc(F)cc2)c2nc[nH]c2n1` [O^6 -(p-fluorobenzyl)guanine, O^6 -(p-fluorobenzyl) guanine], the “AGT depletion (shown previously)” value (AGT [7]) is listed as “effective in depleting AGT” and the IC50 [4, 11] is listed as 0.2 µM.
For `Cc1ccc(COc2nc(N)nc3nc[nH]c23)cc1` [O^6 -(p-methylbenzyl)guanine], the “potency as AGT depleter” value (AGT [7]) is given as “more potent”, the “AGT depletion (shown previously)” value (AGT [7]) is given as “effective in depleting AGT” and the “enhancement in the cytotoxic response” value (tumor cells) is given as “enhancement in the cytotoxic response to chemotherapeutic alkylating agents”. For the same compound, the IC50 [3, 10] was 0.08 µM and the IC50 [4, 11] was 0.2 µM.
In the case of `Cc1ccc(COc2nc(N)nc3c2ncn3[C@@H]2O[C@H](CO)[C@@H](O)[C@H]2O)cc1` [O^6 -(p-methylbenzyl)guanosine, O^6 - (p-methylbenzyl)guanosine], the “AGT depletion (shown previously)” value (AGT [7]) is listed as “effective in depleting AGT”, the IC50 [3, 10] is listed as 3 µM and the IC50 [4, 11] is listed as 9 µM.
In the case of `C=CCOc1nc(N)nc2nc[nH]c12` [O^6 -allylguanine, O^6 -Allylguanine], the IC50 [3] is reported as 4 µM and the IC50 [4] is reported as 20 µM.
For `Nc1nc(OCc2ccccc2)c2ncn([C@@H]3O[C@H](CO)[C@@H](O)[C@H]3O)c2n1` [O^6 -benzylguanosine], the “AGT depletion (shown previously)” value (AGT [7]) is given as “effective in depleting AGT”, the IC50 [3, 10] is given as 2 µM and the IC50 [4, 11] is given as 11 µM.
In the case of `COc1nc(N)nc2nc[nH]c12` [O^6 -methylguanine], the “potency as AGT depleter” value (AGT [7]) is listed as “weak”, the “enhancement in the cytotoxic response” value (tumor cells) is listed as “enhancement in the cytotoxic response to chemotherapeutic alkylating agents” and the IC50 [3, 10] is listed as 120 µM. It also gave an IC50 [4, 11] of 350 µM.
In the case of `Nc1nc(OCc2ccccc2)c2ncn([C@H]3C[C@H](O)[C@@H](CO)O3)c2n1` [O^6-benzyl-2'-deoxyguanosine], the “AGT depletion (shown previously)” value (AGT [7]) is listed as “effective in depleting AGT”, the IC50 [3, 10] is listed as 0.5 µM and the IC50 [4, 11] is listed as 2 µM.
In the case of `CN(N=O)C(=O)N[C@H]1C(O)O[C@H](CO)[C@@H](O)[C@@H]1O` (stereo partly drawn) [Streptozotocin, 2-deoxy-2-(3-methyl-3-nitrosoureido)-D-glucopyranose], the “effectiveness against pancreatic tumors” value (pancreatic tumors) is listed as “effective” and the “selective destruction of pancreatic beta cells” value (pancreatic beta cells) is listed as “selectively destructive to pancreatic beta cells”.
In the case of `Cn1nnc2c(C(N)=O)ncn2c1=O` [Temozolomide, 8-carbamoyl-3-methylimidazo[5,1-d]-1,2,3,5-tetrazin-4-(3H)-one], the “activity against malignant melanomas, brain tumors and mycosis fungoides” value [8] is listed as “active”.
For `O=c1cc[nH]c(=S)[nH]1` [Thiouracil], the “accumulation in active melanin producing cells” value [9] is given as “accumulates readily in active melanin producing cells such as melanoma cells”.
`Nc1nc(OCc2ccccc2)c2ncn(CC(=O)[O-])c2n1.[Na+]` [sodium salt] showed an IC50 [4, 11] of 157 µM.
